{
  "source": "patent US20250163022A1",
  "about": "“PARP1 INHIBITORS” (Synnovation Therapeutics, Inc., priority 2021, published 2025)",
  "data": [
    {"biological_target": "T1, PARP1 (Homo sapiens, UniProt P09874)", "T1 construct": "HeLa cells (wide-type with PARP1 gene) were purchased from ATCC; host or cells: HeLa (wild type)", "T1 sequence (P09874 whole entry)": "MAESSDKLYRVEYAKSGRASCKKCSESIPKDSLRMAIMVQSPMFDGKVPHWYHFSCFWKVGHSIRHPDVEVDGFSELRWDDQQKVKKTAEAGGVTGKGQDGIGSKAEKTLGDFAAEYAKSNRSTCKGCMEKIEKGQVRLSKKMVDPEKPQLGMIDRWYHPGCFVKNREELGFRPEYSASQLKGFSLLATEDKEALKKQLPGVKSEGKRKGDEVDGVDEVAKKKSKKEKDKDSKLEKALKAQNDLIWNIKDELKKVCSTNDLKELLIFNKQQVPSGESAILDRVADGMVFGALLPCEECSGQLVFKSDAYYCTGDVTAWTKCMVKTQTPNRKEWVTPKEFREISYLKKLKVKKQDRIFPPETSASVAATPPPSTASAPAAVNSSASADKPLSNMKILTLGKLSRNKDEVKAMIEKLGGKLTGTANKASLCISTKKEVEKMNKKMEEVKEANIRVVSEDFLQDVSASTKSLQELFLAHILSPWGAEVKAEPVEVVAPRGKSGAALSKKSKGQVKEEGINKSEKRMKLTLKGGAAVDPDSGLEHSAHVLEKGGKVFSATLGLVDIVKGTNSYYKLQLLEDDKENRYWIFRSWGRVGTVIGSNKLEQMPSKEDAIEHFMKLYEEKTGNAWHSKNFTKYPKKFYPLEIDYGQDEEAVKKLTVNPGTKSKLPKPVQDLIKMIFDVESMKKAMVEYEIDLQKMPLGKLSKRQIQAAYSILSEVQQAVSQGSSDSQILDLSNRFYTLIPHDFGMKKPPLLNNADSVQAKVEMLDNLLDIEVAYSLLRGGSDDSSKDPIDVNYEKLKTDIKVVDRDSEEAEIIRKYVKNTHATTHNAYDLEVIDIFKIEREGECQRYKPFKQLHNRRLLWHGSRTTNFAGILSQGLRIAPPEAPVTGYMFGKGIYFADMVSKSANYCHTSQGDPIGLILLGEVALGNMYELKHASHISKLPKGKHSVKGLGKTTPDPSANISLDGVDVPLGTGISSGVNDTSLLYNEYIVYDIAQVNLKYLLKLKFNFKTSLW", "assay": "In-Cell Western measurement of PARylation in PARP1 WT and knockout cells", "format": "cell-based", "conditions": "HeLa cells (wide-type with PARP1 gene); hydrogen peroxide-induced PARylation; compounds 30 min, then 10 mM hydrogen peroxide 15 min; read-out: HeLa_WT_IC50", "source_text": "The purpose of this cell-based assay is to measure the potency and selectivity of synthesized PARP inhibitors in suppressing hydrogen peroxide-induced PARylation in cells with and without PARP1 expression. Several cell lines were used in this assay. The human PARP1 knockout HEK-293T cell line (#ab266598) was purchased from Abcam, and its corresponding wide-type control is the human wild-type HEK-293T cell line (#ab255449). The HAP1 isogenic cell lines with and without the PARP1 gene (#HZGHC003943c006) were purchased from Horizon Discovery. HeLa cells (wide-type with PARP1 gene) were purchased from ATCC. Cells were cultured using complete medium containing 10% fetal bovine serum. One day before the assay, cells were seeded in 96-well plates at the density of 20,000 cells per well in 100 uL complete medium. Compounds were dissolved using DMSO and diluted to the working concentrations using complete medium. Cells were pre-treated with compounds for 30 min and then stimulated with 10 mM hydrogen peroxide for 15 min. After stimulation, cells were immediately fixed using ice-cold methanol for 20 min. After fixation, cells were washed using 1×PBST buffer for 3 times, 5 min each time, to eliminate residual methanol. Cells were blocked for 2 h at room temperature in blocking buffer (LI-COR Biosciences, #927-70001). Primary antibody was diluted in diluent buffer (LI-COR Biosciences, #927-75001, 1:200) at 50 uL per well. Cells were incubated with the primary antibody at 4° C. for 18 h. The wells were then washed using 1×PBST for 3 times, 5 min each time. IRDye® 680RD Goat anti-Mouse IgG (H+L) secondary antibody was diluted at 1/2000 using the diluent buffer and added at 100 μL per well. Secondary antibody incubation was for 1 h at room temperature. Cells were then washed using 1×PBST for 3 times, 5 min each time. The signal was detected and analyzed using LI-COR Odyssey DLx Imaging system. Data were collected and further processed using GraphPad Prism for IC50 estimation.", "units": {"IC50": "nM"}, "values": [
      {"smiles": "CCN1C(=O)Nc2c(F)c(CN3CCN(c4ccc(C(=O)NC5CC5)nc4C)CC3)cc3ncnc1c23", "note": "[Compound I-55, N-cyclopropyl-5-(4-((3-ethyl-9-fluoro-2-oxo-2,3-dihydro-1H-pyrimido[4,5,6-de]quinazolin-8-yl)methyl)piperazin-1-yl)-6-methylpicolinamide]", "IC50": "≤ 10"},
      {"smiles": "CCN1C(=O)Nc2c(F)c(CN3CCN(c4ccc(C(=O)NC5CC5)nc4C)CC3)cc3c(C)nnc1c23", "note": "[Compound I-56, N-cyclopropyl-5-(4-((9-ethyl-6-fluoro-3-methyl-8-oxo-8,9-dihydro-7H-pyridazino[3,4,5-de]quinazolin-5-yl)methyl)piperazin-1-yl)-6-methylpicolinamide]", "IC50": "≤ 10"},
      {"smiles": "CCN1C(=O)Nc2c(F)c(CN3CCN(c4ccc(C(=O)NOC)nc4C)CC3)cc3ncnc1c23", "note": "[Compound I-57, 5-(4-((3-Ethyl-9-fluoro-2-oxo-2,3-dihydro-1H-pyrimido[4,5,6-de]quinazolin-8-yl)methyl)piperazin-1-yl)-N-methoxy-6-methylpicolinamide]", "IC50": "≤ 10"},
      {"smiles": "CCN1C(=O)Nc2c(F)c(CN3CCN(c4ccc(C(=O)NOCC5CC5)nc4C)CC3)cc3ncnc1c23", "note": "[Compound I-58, N-(cyclopropylmethoxy)-5-(4-((3-ethyl-9-fluoro-2-oxo-2,3-dihydro-1H-pyrimido[4,5,6-de]quinazolin-8-yl)methyl)piperazin-1-yl)-6-methylpicolinamide]", "IC50": "≤ 10"},
      {"smiles": "CCN1C(=O)Nc2c(F)c(CN3CCN(c4ccc(C(=O)NC5(CO)CC5)nc4C)CC3)cc3ncnc1c23", "note": "[Compound I-59, 5-(4-((3-ethyl-9-fluoro-2-oxo-2,3-dihydro-1H-pyrimido[4,5,6-de]quinazolin-8-yl)methyl)piperazin-1-yl)-N-(1-(hydroxymethyl)cyclopropyl)-6-methylpicolinamide]", "IC50": "≤ 10"},
      {"smiles": "CCN1C(=O)Nc2c(F)c(CN3CCN(c4ccc(C(=O)N[C@H]5C[C@H](C#N)C5)nc4C)CC3)cc3ncnc1c23", "note": "[Compound I-60, N-((1r,3r)-3-cyanocyclobutyl)-5-(4-((3-ethyl-9-fluoro-2-oxo-2,3-dihydro-1H-pyrimido[4,5,6-de]quinazolin-8-yl)methyl)piperazin-1-yl)-6-methylpicolinamide]", "IC50": "≤ 10"},
      {"smiles": "CCN1C(=O)Nc2c(F)c(CN3CCN(c4ccc(C(=O)NC5(C#N)CC5)nc4C)CC3)cc3ncnc1c23", "note": "[Compound I-62, N-(1-cyanocyclopropyl)-5-(4-((3-ethyl-9-fluoro-2-oxo-2,3-dihydro-1H-pyrimido[4,5,6-de]quinazolin-8-yl)methyl)piperazin-1-yl)-6-methylpicolinamide]", "IC50": "≤ 10"},
      {"smiles": "CCN1C(=O)Nc2c(F)c(CN3CCN(c4ccc(C(=O)N[C@H]5CCCOC5)nc4C)CC3)cc3ncnc1c23", "note": "[Compound I-63, (S)-5-(4-((3-ethyl-9-fluoro-2-oxo-2,3-dihydro-1H-pyrimido[4,5,6-de]quinazolin-8-yl)methyl)piperazin-1-yl)-6-methyl-N-(tetrahydro-2H-pyran-3-yl)picolinamide]", "IC50": "≤ 10"},
      {"smiles": "CCN1C(=O)Nc2c(F)c(CN3CCN(c4ccc(C(=O)N[C@H]5C[C@@H](C#N)C5)nc4C)CC3)cc3ncnc1c23", "note": "[Compound I-65, N-((1s,3s)-3-cyanocyclobutyl)-5-(4-((3-ethyl-9-fluoro-2-oxo-2,3-dihydro-1H-pyrimido[4,5,6-de]quinazolin-8-yl)methyl)piperazin-1-yl)-6-methylpicolinamide]", "IC50": "≤ 10"},
      {"smiles": "CCN1C(=O)Nc2c(F)c(CN3CCN(c4ccc(C(=O)NC5(COC)CC5)nc4C)CC3)cc3ncnc1c23", "note": "[Compound I-66, 5-(4-((3-ethyl-9-fluoro-2-oxo-2,3-dihydro-1H-pyrimido[4,5,6-de]quinazolin-8-yl)methyl)piperazin-1-yl)-N-(1-(methoxymethyl)cyclopropyl)-6-methylpicolinamide]", "IC50": "≤ 10"},
      {"smiles": "CCN1C(=O)Nc2c(F)c(CN3CCN(c4ccc(C(=O)N[C@@H]5CCOC5)nc4C)CC3)cc3ncnc1c23", "note": "[Compound I-67, (R)-5-(4-((3-ethyl-9-fluoro-2-oxo-2,3-dihydro-1H-pyrimido[4,5,6-de]quinazolin-8-yl)methyl)piperazin-1-yl)-6-methyl-N-(tetrahydrofuran-3-yl)picolinamide]", "IC50": "≤ 10"},
      {"smiles": "CCN1C(=O)Nc2c(F)c(CN3CCN(c4ccc(C(=O)N[C@@H]5[C@@H]6COC[C@@H]65)nc4C)CC3)cc3ncnc1c23", "note": "[Compound I-69, N-((1R,5S,6s)-3-oxabicyclo[3.1.0]hexan-6-yl)-5-(4-((3-ethyl-9-fluoro-2-oxo-2,3-dihydro-1H-pyrimido[4,5,6-de]quinazolin-8-yl)methyl)piperazin-1-yl)-6-methylpicolinamide]", "IC50": "10 to 100"},
      {"smiles": "CCN1C(=O)Nc2c(F)c(CN3CCN(c4ccc(C(=O)N[C@H]5[C@@H]6COC[C@@H]65)nc4C)CC3)cc3ncnc1c23", "note": "[Compound I-70, N-((1R,5S,6r)-3-oxabicyclo[3.1.0]hexan-6-yl)-5-(4-((3-ethyl-9-fluoro-2-oxo-2,3-dihydro-1H-pyrimido[4,5,6-de]quinazolin-8-yl)methyl)piperazin-1-yl)-6-methylpicolinamide]", "IC50": "≤ 10"},
      {"smiles": "CCN1C(=O)Nc2c(F)c(CN3CCN(c4ccc(C(=O)NC5CN(C)C5)nc4C)CC3)cc3ncnc1c23", "note": "[Compound I-71, 5-(4-((3-ethyl-9-fluoro-2-oxo-2,3-dihydro-1H-pyrimido[4,5,6-de]quinazolin-8-yl)methyl)piperazin-1-yl)-6-methyl-N-(1-methylazetidin-3-yl)picolinamide]", "IC50": "≤ 10"},
      {"smiles": "CCN1C(=O)Nc2c(F)c(CN3CCN(c4ccc(C(=O)N[C@H]5CCOC5)nc4C)CC3)cc3ncnc1c23", "note": "[Compound I-73, (S)-5-(4-((3-ethyl-9-fluoro-2-oxo-2,3-dihydro-1H-pyrimido[4,5,6-de]quinazolin-8-yl)methyl)piperazin-1-yl)-6-methyl-N-(tetrahydrofuran-3-yl)picolinamide]", "IC50": "≤ 10"},
      {"smiles": "CCN1C(=O)Nc2c(F)c(CN3CCN(c4ccc(C(=O)N[C@H]5CC[C@@H](C#N)CC5)nc4C)CC3)cc3ncnc1c23", "note": "[Compound I-74, N-((1s,4s)-4-cyanocyclohexyl)-5-(4-((3-ethyl-9-fluoro-2-oxo-2,3-dihydro-1H-pyrimido[4,5,6-de]quinazolin-8-yl)methyl)piperazin-1-yl)-6-methylpicolinamide]", "IC50": "10 to 100"},
      {"smiles": "CCN1C(=O)Nc2c(F)c(CN3CCN(c4ccc(C(=O)N[C@H]5CC[C@H](C#N)CC5)nc4C)CC3)cc3ncnc1c23", "note": "[Compound I-75, N-((1r,4r)-4-cyanocyclohexyl)-5-(4-((3-ethyl-9-fluoro-2-oxo-2,3-dihydro-1H-pyrimido[4,5,6-de]quinazolin-8-yl)methyl)piperazin-1-yl)-6-methylpicolinamide]", "IC50": "10 to 100"},
      {"smiles": "CCN1C(=O)Nc2c(F)c(CN3CCN(c4ccc(C(=O)N[C@@H]5CCN(C)C5)nc4C)CC3)cc3ncnc1c23", "note": "[Compound I-77, (R)-5-(4-((3-ethyl-9-fluoro-2-oxo-2,3-dihydro-1H-pyrimido[4,5,6-de]quinazolin-8-yl)methyl)piperazin-1-yl)-6-methyl-N-(1-methylpyrrolidin-3-yl)picolinamide]", "IC50": "10 to 100"},
      {"smiles": "CCN1C(=O)Nc2c(F)c(CN3CCN(c4ccc(C(=O)N[C@H]5CCN(C)C5)nc4C)CC3)cc3ncnc1c23", "note": "[Compound I-78, (S)-5-(4-((3-ethyl-9-fluoro-2-oxo-2,3-dihydro-1H-pyrimido[4,5,6-de]quinazolin-8-yl)methyl)piperazin-1-yl)-6-methyl-N-(1-methylpyrrolidin-3-yl)picolinamide]", "IC50": "≤ 10"},
      {"smiles": "CCN1C(=O)Nc2c(F)c(CN3CCN(c4ccc(C(=O)NC5(CC#N)CC5)nc4C)CC3)cc3ncnc1c23", "note": "[Compound I-79, N-(1-(cyanomethyl)cyclopropyl)-5-(4-((3-ethyl-9-fluoro-2-oxo-2,3-dihydro-1H-pyrimido[4,5,6-de]quinazolin-8-yl)methyl)piperazin-1-yl)-6-methylpicolinamide]", "IC50": "≤ 10"},
      {"smiles": "CCN1C(=O)Nc2c(F)c(CN3CCN(c4ccc(C(=O)NC5CC5)nc4C)CC3)cc3c(=O)n(C)nc1c23", "note": "[Compound I-80, N-cyclopropyl-5-(4-((9-ethyl-6-fluoro-2-methyl-3,8-dioxo-2,7,8,9-tetrahydro-3H-pyridazino[3,4,5-de]quinazolin-5-yl)methyl)piperazin-1-yl)-6-methylpicolinamide]", "IC50": "10 to 100"},
      {"smiles": "CCN1C(=O)Nc2c(F)c(CN3CCN(c4ccc(C(=O)NC5CC5)cc4C)CC3)cc3ncnc1c23", "note": "[Compound I-82, N-cyclopropyl-4-(4-((3-ethyl-9-fluoro-2-oxo-2,3-dihydro-1H-pyrimido[4,5,6-de]quinazolin-8-yl)methyl)piperazin-1-yl)-3-methylbenzamide]", "IC50": "≤ 10"},
      {"smiles": "CCN1C(=O)Nc2c(F)c(CN3CCN(c4ccc(C(=O)NC5CC5)cc4F)CC3)cc3ncnc1c23", "note": "[Compound I-86, N-cyclopropyl-4-(4-((3-ethyl-9-fluoro-2-oxo-2,3-dihydro-1H-pyrimido[4,5,6-de]quinazolin-8-yl)methyl)piperazin-1-yl)-3-fluorobenzamide]", "IC50": "10 to 100"}
    ]}
  ]
}
